Experiments:
[1] = target: JAK1 (recombinant purified GST-tagged catalytic domain) (Homo sapiens (Human), UniProt P23458); assay: Jak Biochemical HTRF Assay (JAK1); conditions: [ATP] 31.8 μM
In short: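 Compounds in DMSO were pre-equilibrated with enzyme and biotinylated peptide, then ATP was added and the reaction proceeded 120 min at room temperature. EDTA-based stop buffer with detection reagents was added, and after 60 min the time-resolved FRET ratio was read. IC50s came from 4-parameter dose–response fits.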

[2] = target: JAK2 (recombinant purified GST-tagged catalytic domain) (Homo sapiens (Human), UniProt O60674); assay: Jak Biochemical HTRF Assay (JAK2); conditions: [ATP] 8.5 μM
Chain of JAK2 (recombinant purified GST-tagged catalytic domain) (O60674 849-1124): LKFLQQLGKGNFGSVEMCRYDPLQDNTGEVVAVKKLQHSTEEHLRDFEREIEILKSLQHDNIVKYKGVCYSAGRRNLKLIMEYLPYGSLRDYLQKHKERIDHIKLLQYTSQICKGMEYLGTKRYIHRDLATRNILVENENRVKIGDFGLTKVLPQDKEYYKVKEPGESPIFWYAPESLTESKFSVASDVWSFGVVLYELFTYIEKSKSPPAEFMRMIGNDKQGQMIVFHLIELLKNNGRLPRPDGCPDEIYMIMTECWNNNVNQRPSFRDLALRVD
Method: Jak Biochemical HTRF Assay Protocol
The ability of compounds to inhibit the activity of JAK1, JAK2, JAK3, and Tyk2 was measured using a recombinant purified GST-tagged catalytic domain for each enzyme (Invitrogen JAK1 #M4290, JAK2 #M4290, JAK3 #M4290, Tyk2 #M4290) in an HTRF format biochemical assay. […] The basic assay protocol is as follows: First, 250 nL of diluted compounds in DMSO were dispensed into the wells of a dry 384-well Black plate (Greiner #781076) using a Labcyte Echo 555 acoustic dispenser. Subsequent reagent additions employed an Agilent Bravo. […] After equilibration, 2 μL of 10×ATP in 1× assay buffer was added to initiate the kinase reaction and the plates were shaken and then incubated at room temperature for 120 minutes. […] Plates were shaken and centrifuged and then incubated 60 minutes at room temperature and then read on a Perkin Elmer Envision (λex=337 nm, λem=665 and 615 nm, TRF delay time=20 μs). HTRF signal=10,000*665 nm reading/615 nm reading. After normalization to untreated controls, the percent inhibition of the HTRF signal at each compound concentration was calculated. The plot of percent inhibition versus the log of compound concentration was fit with a 4-parameter dose response equation to calculate IC50 values.
Final reaction conditions were:
Examples of the instant invention were evaluated in JAK1 and JAK2 in vitro binding assays as described above.

Chain of JAK1 (recombinant purified GST-tagged catalytic domain) (P23458 875-1153): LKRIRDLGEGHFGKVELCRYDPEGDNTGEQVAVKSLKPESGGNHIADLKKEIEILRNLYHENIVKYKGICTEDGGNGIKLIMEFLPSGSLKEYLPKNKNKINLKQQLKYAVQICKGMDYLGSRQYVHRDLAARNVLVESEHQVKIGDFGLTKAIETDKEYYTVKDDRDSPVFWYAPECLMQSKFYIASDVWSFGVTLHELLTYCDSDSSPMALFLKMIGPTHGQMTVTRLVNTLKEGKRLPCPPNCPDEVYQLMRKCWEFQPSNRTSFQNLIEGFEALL

Structure (SMILES) | IC50 [1] [nM] | IC50 [2] [nM]
Cc1cc(Nc2nn([C@]3(CC#N)CCCOC3)c3cc[nH]c(=O)c23)ccc1C(=O)N1CCC(O)(C(F)(F)F)C1 (single isomer, unassigned) [Example 5-114, 2-((S)-3-(3-((4-((S or R)-3-hydroxy-3-(trifluoromethyl)pyrrolidine-1-carbonyl)-3-methylphenyl)amino)-4-oxo-4,5-dihydro-1H-pyrazolo[4,3-c]pyridin-1-yl)tetrahydro-2H-pyran-3-yl)acetonitrile] | 0.33 | 1.31
COC(=O)N1CCC(CC#N)(n2nc(Nc3ccc(C#N)cc3)c3c(=O)[nH]ccc32)CC1 [Example 5-145, methyl 4-(cyanomethyl)-4-(3-((4-cyanophenyl)amino)-4-oxo-4,5-dihydro-1H-pyrazolo[4,3-c]pyridin-1-yl)piperidine-1-carboxylate] | 0.19 | 1.22
Cc1cc(Nc2nn([C@@]3(CC#N)CCN(C(=O)OC(C)(C)C)C[C@H]3F)c3cc[nH]c(=O)c23)ccc1C(=O)N1CCSCC1 [Example 5-279, (3R,4R)-tert-butyl 4-(cyanomethyl)-3-fluoro-4-(3-((3-methyl-4-(thiomorpholine-4-carbonyl)phenyl)amino)-4-oxo-4,5-dihydro-1H-pyrazolo[4,3-c]pyridin-1-yl)piperidine-1-carboxylate] | 0.18 | 0.12
CC(C)(C)N[C@H](c1ccc(Nc2nn([C@]3(CC#N)CCOC[C@@H]3F)c3cc[nH]c(=O)c23)cc1)C(F)(F)F (single isomer, unassigned) [Example 5-269, 2-((3R,4R or 3S,4S)-4-(3-((4-((R or S)-1-(tert-butylamino)-2,2,2-trifluoroethyl)phenyl)amino)-4-oxo-4,5-dihydro-1H-pyrazolo[4,3-c]pyridin-1-yl)-3-fluorotetrahydro-2H-pyran-4-yl)acetonitrile] | 0.11 | 0.09
Cc1cc(Nc2nn([C@@]3(CC#N)CCCC[C@H]3F)c3cc[nH]c(=O)c23)ccc1C(=O)N1CCSCC1 [Example 5-154, 2-((1R,2R)-2-fluoro-1-(3-((3-methyl-4-(thiomorpholine-4-carbonyl)phenyl)amino)-4-oxo-4,5-dihydro-1H-pyrazolo[4,3-c]pyridin-1-yl)cyclohexyl)acetonitrile] | 0.09 | 0.08
COC(=O)N1CCC(CC#N)(n2nc(Nc3ccc4ncccc4c3)c3c(=O)[nH]ccc32)CC1 [Example 5-148, methyl 4-(cyanomethyl)-4-(4-oxo-3-(quinolin-6-ylamino)-4,5-dihydro-1H-pyrazolo[4,3-c]pyridin-1-yl)piperidine-1-carboxylate] | 0.08 | 0.84
CC(C)(C)OC(=O)N1CCC(CC#N)(n2nc(Nc3ccc4c(c3)CN(CC3CC3)S4(=O)=O)c3c(=O)[nH]ccc32)CC1 [Example 5-68, tert-butyl 4-(cyanomethyl)-4-(3-{[2-(cyclopropylmethyl)-1,1-dioxo-2,3-dihydro-1,2-benzothiazol-5-yl]amino}-4-oxo-1H,4H,5H-pyrazolo[4,3-c]pyridin-1-yl)piperidine-1-carboxylate] | 0.25 | 0.33
Cc1cc(Nc2nn(C3(CC#N)CCN(C(=O)OC(C)(C)C)CC3)c3cc[nH]c(=O)c23)ccc1C(=O)N1C2CCC1COC2 [Example 21-13, tert-butyl 4-(cyanomethyl)-4-{3-[(5-methyl-4-{3-oxa-8-azabicyclo[3.2.1]octan-8-ylcarbonyl}cyclohexa-1,3,5-trien-1-yl)amino]-4-oxo-5H-pyrazolo[4,3-c]pyridin-1-yl}piperidine-1-carboxylate] | 0.27 | 0.2
N#CC[C@@]1(n2nc(Nc3ccc(C(N)C(F)(F)F)cc3)c3c(=O)[nH]ccc32)CCCOC1 (single isomer, unassigned) [Example 5-187, {(3S)-3-[3-({4-[(1R or 1S)-1-amino-2,2,2-trifluoroethyl]phenyl}amino)-4-oxo-4,5-dihydro-1H-pyrazolo[4,3-c]pyridin-1-yl]tetrahydro-2H-pyran-3-yl}acetonitrile] | 0.19 | 0.58
CC(C)NS(=O)(=O)c1ccc(Nc2nn(C3(CC#N)CCN(C(=O)OC(C)(C)C)CC3)c3cc[nH]c(=O)c23)cc1F [Example 5-295, tert-butyl 4-(cyanomethyl)-4-(3-((3-fluoro-4-(N-isopropylsulfamoyl)phenyl)amino)-4-oxo-4,5-dihydro-1H-pyrazolo[4,3-c]pyridin-1-yl)piperidine-1-carboxylate] | 0.42 | 0.6
Cc1cc(Nc2nn([C@]3(CC#N)CCCOC3)c3cc[nH]c(=O)c23)ccc1C(=O)N1CC[C@@H](F)C1 [Example 5-115, 2-((S)-3-(3-((4-((R)-3-fluoropyrrolidine-1-carbonyl)-3-methylphenyl)amino)-4-oxo-4,5-dihydro-1H-pyrazolo[4,3-c]pyridin-1-yl)tetrahydro-2H-pyran-3-yl)acetonitrile] | 0.33 | 0.99
Cc1cc(Nc2nn([C@]3(CC#N)CC[C@@H](C(=O)OC(C)(C)C)OC3)c3cc[nH]c(=O)c23)ccc1C(=O)N1CCSC1C (single isomer, unassigned) [Example 5-156, (2S,5S)-tert-butyl 5-(cyanomethyl)-5-(3-((3-methyl-4-((S or R)-2-methylthiazolidine-3-carbonyl)phenyl)amino)-4-oxo-4,5-dihydro-1H-pyrazolo[4,3-c]pyridin-1-yl)tetrahydro-2H-pyran-2-carboxylate] | 0.17 | 0.3
CC(C)(C)OC(=O)N1CCC(CC#N)(n2nc(Nc3ccc(C4(C(F)(F)F)CCN(Cc5ccccc5)C4)cc3)c3c(=O)[nH]ccc32)CC1 (single isomer, unassigned) [Example 5-280, (S or R) tert-butyl 4-(3-((4-(1-benzyl-3-(trifluoromethyl)pyrrolidin-3-yl)phenyl)amino)-4-oxo-4,5-dihydro-1H-pyrazolo[4,3-c]pyridin-1-yl)-4-(cyanomethyl)piperidine-1-carboxylate] | 7.33 | 9.56
N#CC[C@@]1(n2nc(Nc3ccc(C(N4CCCC4)C(F)(F)F)cc3)c3c(=O)[nH]ccc32)CCCOC1 (single isomer, unassigned) [Example 5-199, {(3S)-3-[4-oxo-3-({4-[(1S or 1R)-2,2,2-trifluoro-1-pyrrolidin-1-ylethyl]phenyl}amino)-4,5-dihydro-1H-pyrazolo[4,3-c]pyridin-1-yl]tetrahydro-2H-pyran-3-yl}acetonitrile] | 0.15 | 0.33

Further lines, results first:

IC50 [1] [nM] | IC50 [2] [nM] | Structure (SMILES)
0.64 | 5.54 | COC(=O)N1CCC(CC#N)(n2nc(Nc3ccnc(F)c3)c3c(=O)[nH]ccc32)CC1 [Example 13-2, methyl 4-(cyanomethyl)-4-(3-(2-fluoropyridin-4-ylamino)-4-oxo-4,5-dihydropyrazolo[4,3-c]pyridin-1-yl)piperidine-1-carboxylate]
6.8 | 64 | N#CCC1(n2nc(Nc3ccc(C(F)(F)F)cc3)c3c(=O)[nH]ccc32)CCC(N2CC(F)C2)CC1 (single isomer, unassigned) [Example 18-2, 2-(4-(3-fluoroazetidin-1-yl)-1-(4-oxo-3-((4-(trifluoromethyl)phenyl)amino)-4,5-dihydro-1H-pyrazolo[4,3-c]pyridin-1-yl)cyclohexyl)acetonitrile]
0.27 | 0.97 | CN(C)S(=O)(=O)c1ccc(Nc2nn(C3(CC#N)CCN(C(=O)Oc4ccc(F)cc4)CC3)c3cc[nH]c(=O)c23)cc1 [Example 10-3, 4-fluorophenyl 4-(cyanomethyl)-4-(3-((4-(N,N-dimethylsulfamoyl)phenyl)amino)-4-oxo-4,5-dihydro-1H-pyrazolo[4,3-c]pyridin-1-yl)piperidine-1-carboxylate]
70.2 | > 1500 | N#CC[C@]1(n2nc(Nc3ccc(Cl)c(F)c3)c3c(=O)[nH]ccc32)CC[C@@H](Nc2ccccc2)CC1 [Example 18-25, Cis 2-(1-(3-((4-chloro-3-fluorophenyl)amino)-4-oxo-4,5-dihydro-1H-pyrazolo[4,3-c]pyridin-1-yl)-4-(phenylamino)cyclohexyl)acetonitrile]
0.33 | 0.32 | Cc1cc(Nc2nn(C3(CC#N)CCN(C(=O)OC(C)(C)C)CC3)c3cc[nH]c(=O)c23)ccc1C(=O)N1CCSCC1 [Example 21-14, tert-butyl-4-(cyanomethyl)-4-(3-(3-methyl-4-(thiomorpholine-4-carbonyl)phenylamino)-4-oxo-4,5-dihydropyrazolo[4,3-c]pyridin-1-yl)piperidine-1-carboxylate]
0.15 | 0.16 | Cc1cc(Nc2nn([C@]3(CC#N)CC[C@@H](C(=O)OC(C)(C)C)OC3)c3cc[nH]c(=O)c23)ccc1C(=O)N1CCOCC1C (single isomer, unassigned) [Example 20-8, (2S,5S)-tert-butyl 5-(cyanomethyl)-5-(3-((3-methyl-4-((S or R)-3-methylmorpholine-4-carbonyl)phenyl)amino)-4-oxo-4,5-dihydro-1H-pyrazolo[4,3-c]pyridin-1-yl)tetrahydro-2H-pyran-2-carboxylate]

Reference: US9957264B2 (Merck Sharp & Dohme Corp., priority 2013, dated 2018)
